Columns and labels:
[1] = Photothermal properties of solutions under 808 nm NIR laser; conditions: 1 W/cm^2, ICG 10 μg/ml
Experimental: 500 μl of each of the solutions was placed in a centrifuge tube and irradiated with an NIR laser beam at a power density of 1 W/cm^2 and temperature change of the solutions receiving the laser beam was measured in real time by an infrared (IR) thermal imaging system (FLIR SC-300, FLIR Systems Inc., Danderyd, Sweden).

[2] = In vitro laser induced phototherapy, cell viability; type: cell-based; conditions: mouse, SCC7 cells, PB 80 μg/ml, ICG 10 μg/ml, read-out: cell viability without laser treatment
Experimental: (§1) Next, the cells were completely cleaned and fresh medium was added to each of the wells. Next, the cells were irradiated with an 808 nm NIR laser beam for 5 minutes.
(§2) After laser irradiation, the cells were further cultured for 12 hours, and cell viability was measured by WST-1 analysis.

SCC7 cells [3] = assay: as above; type: cell-based; conditions: Mus musculus, SCC-7, light or radiation study, 5 min, 808 nm, 1 W/cm^2, 5 minutes, PB 80 μg/ml, ICG 10 μg/ml, read-out: cell viability after NIR laser irradiation
Experimental: as §1, §2

SCC7 cells [4] = assay: Intracellular singlet oxygen generation with H2DCF-DA probe; type: cell-based; conditions: SCC7, after 808 nm laser irradiation
Experimental: Further, free ICG has photodynamic properties and can generate singlet oxygen (^1O2) when exposed to an 808 nm NIR laser beam. Generation of intracellular singlet oxygen (^1O2) was analyzed using 2′,7′-dichlorodihydrofluorescein diacetate (H2DCF-DA) dye as a reactive oxygen species (ROS) probe.

SCC7 tumor [5] = assay: In vivo and ex vivo NIR fluorescence bio-distribution (IVIS); design: species or system mice
Experimental: The same group of mice was investigated as to NIR fluorescence signals by an in vivo imaging system (IVIS).
The free ICG solution (2 mg/kg) was injected into other mice as a control group for IVIS imaging. […] Gradual reduction of the signals means that free ICG molecules were quickly discharged from the bodies of the mice (FIG. 8b).
In-vivo bio-distribution of the PB-BSA-ICG nanoparticles and free ICG was analyzed by optical fluorescence imaging. […] Fluorescence signals in the mice subjected to injection of free ICG (2 mg/kg) were also recorded at time intervals similar to those set forth above.
The mice were sacrificed 24 hours after injection, and fluorescence signals (liver, lung, spleen, heart, and kidney) from resected tumors and major organs were measured.

SCC7 tumor [6] = type: in vivo
Experimental: 24 hours after injection, tumor sites of all of the mice were irradiated with a continuous wave NIR laser beam (808 nm, 1 W/cm^2, 10 minutes) for phototherapy, and real-time temperature increase during laser irradiation was monitored by an IR thermal camera (FIGS. 10a and 10b).
In-vivo phototherapy: The tumor-xenograft mice were produced in the same manner as described above. The mice, in which tumors had grown to a desired volume (about 100 mm^3), were divided into four groups, that is, a saline solution group, a free ICG group, a PB-BSA nanoparticle group, and PB-BSA-ICG nanoparticle group. According to the groups, each sample was injected into a vein of the corresponding mouse (administration of 2 mg/kg of ICG, administration of 20 mg/kg of PB).
24 hours after injection, the tumor of each of the mice was exposed to an 808 nm NIR laser beam (1 W/cm^2) for 10 minutes, real-time temperature change of the tumor region during laser treatment was monitored by an IR thermal imaging system. The size of the tumor after treatment was measured at a specific time point using a digital caliper.

[7] = repeated laser irradiation, 3 minutes per cycle
[8] = 808 nm, 1 W/cm^2, 10 minutes, 24 hours after injection

CC1(C)C(/C=C/C=C/C=C/C=C2\N(CCCCS(=O)(=O)O)c3ccc4ccccc4c3C2(C)C)=[N+](CCCCS(=O)(=O)[O-])c2ccc3ccccc3c21 [free ICG, Indocyanine green]
temperature increase ([1]; laser irradiation for 5 minutes, 808 nm, PB 80 μg/ml): 10 °C
temperature increase, first cycle [1, 7]: about 10 °C
temperature increase, second cycle [1, 7]: about 6 °C
temperature increase, third cycle [1, 7]: 2.5 °C
viability at 24 h, 10 μg/ml [2]: ~100%
viability at 10 µg/mL (SCC7 cells [3]): 55%
intracellular ^1O2 generation (green fluorescence of H2DCF-DA) (SCC7 cells [4]): intracellular green fluorescence signals were observed
in vivo NIR fluorescence signal distribution (SCC7 tumor [5]; 3 hours after injection, 2 mg/kg): strong signals at liver sites
ex vivo fluorescence signals of livers (SCC7 tumor [5]; 24 hours after injection): significantly high fluorescence signals
ex vivo fluorescence signals of tumors (SCC7 tumor [5]; 24 hours after injection): low signals
average temperature increase of tumor (SCC7 tumor [6]; [8]): about 6 °C
final tumor temperature (SCC7 tumor [6]; [8]): 42 °C
tumor response after laser treatment (SCC7 tumor [6]; monitored for 14 days, ICG 2 mg/kg, PB 20 mg/kg): did not exhibit meaningful tumor regression

From patent US10973933B2, “Nanoparticles for diagnosis and treatment of tumors” (GWANGJU INSTITUTE OF SCIENCE AND TECHNOLOGY, priority 2015, dated 2021)
